Data reported in US8883801B2, “Substituted pyrazolo[1,5-a]pyrimidines as mTOR inhibitors” (Merck Sharp & Dohme Corp., priority 2010, dated 2014).
Like-named read-outs stand apart in the source and are kept apart here.

What was measured:
[1] = system: mTORC2 activity: phosphorylated AKT Ser473 (pAKT S473) in PC3 cells; experiment: mTOR target engagement assay, immunofluorescent cell-based, mTORC2 readout; conditions: Homo sapiens, PC-3, 1.5 h, 90 min treatment
In short: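 Read-out is immunofluorescence intensity, normalized to DMSO-only wells and fitted to a sigmoidal Hill equation for IC50. The mTORC1 arm probes phospho-4E-BP1 Thr37/46 and the mTORC2 arm phospho-AKT Ser473.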

[2] = molecular target: human mTOR enzyme (Homo sapiens, UniProt P42345); experiment: HTRF mTOR enzyme (kinase) assay; format: biochemical; conditions: 5 μM ATP, 0.2 μM GST-S6K, read-out: hMTOR IC50
Sequence of human mTOR enzyme (P42345 1360-2549 limits assumed): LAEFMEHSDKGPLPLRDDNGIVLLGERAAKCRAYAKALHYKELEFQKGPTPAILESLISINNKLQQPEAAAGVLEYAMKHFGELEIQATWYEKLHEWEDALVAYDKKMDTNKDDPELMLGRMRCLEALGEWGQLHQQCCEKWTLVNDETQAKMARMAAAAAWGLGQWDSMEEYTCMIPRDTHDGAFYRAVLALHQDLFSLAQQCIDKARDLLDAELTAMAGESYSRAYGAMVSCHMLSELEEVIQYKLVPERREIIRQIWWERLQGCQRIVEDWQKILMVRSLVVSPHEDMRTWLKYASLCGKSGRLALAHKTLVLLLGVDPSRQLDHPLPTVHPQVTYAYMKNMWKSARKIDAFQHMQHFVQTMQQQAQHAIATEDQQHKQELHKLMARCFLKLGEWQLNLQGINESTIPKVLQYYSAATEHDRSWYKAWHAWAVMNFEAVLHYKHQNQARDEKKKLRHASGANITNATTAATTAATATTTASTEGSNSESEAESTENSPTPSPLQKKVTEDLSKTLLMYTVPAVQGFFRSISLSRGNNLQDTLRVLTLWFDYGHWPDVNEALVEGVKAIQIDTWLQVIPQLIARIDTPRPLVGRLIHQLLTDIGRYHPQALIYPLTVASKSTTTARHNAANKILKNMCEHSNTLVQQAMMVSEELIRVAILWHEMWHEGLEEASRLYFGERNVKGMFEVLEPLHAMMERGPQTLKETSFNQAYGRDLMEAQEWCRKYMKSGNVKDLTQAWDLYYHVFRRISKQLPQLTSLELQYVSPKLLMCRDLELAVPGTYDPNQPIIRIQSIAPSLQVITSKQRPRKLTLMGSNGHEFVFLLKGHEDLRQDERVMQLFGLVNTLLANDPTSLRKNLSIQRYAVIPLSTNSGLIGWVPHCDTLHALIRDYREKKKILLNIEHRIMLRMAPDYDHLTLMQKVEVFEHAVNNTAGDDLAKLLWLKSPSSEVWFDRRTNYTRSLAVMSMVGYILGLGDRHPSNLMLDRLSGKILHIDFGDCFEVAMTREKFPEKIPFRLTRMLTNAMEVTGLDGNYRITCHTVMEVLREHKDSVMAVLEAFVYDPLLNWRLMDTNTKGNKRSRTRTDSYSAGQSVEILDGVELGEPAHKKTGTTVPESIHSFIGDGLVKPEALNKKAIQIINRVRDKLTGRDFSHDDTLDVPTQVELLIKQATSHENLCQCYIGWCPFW

Compound | IC50 ([1]; rated class) | IC50 ([2]; rated class) | IC50 ([1]; numeric value) | IC50 ([2]; numeric value)
CC(=O)c1c(C2CCC(CO)(C(=O)O)CC2)nc2c(-c3cnn(-c4ccccc4)c3)cnn2c1N (stereo not drawn) [Compound 132, 4-(6-acetyl-7-amino-3-(1-phenyl-1H-pyrazol-4-yl)pyrazolo[1,5-a]pyrimidin-5-yl)-1-(hydroxymethyl)cyclohexanecarboxylic acid] | 100 to 1000 nM | 1 to 100 nM |  | 
Nc1c(Br)c(C2CCC(O)(CO)CC2)nc2c(-c3ccc(-c4ccccc4)nc3)cnn12 (stereo not drawn) [Compound 134, 4-(7-amino-6-bromo-3-(6-phenylpyridin-3-yl)pyrazolo[1,5-a]pyrimidin-5-yl)-1-(hydroxymethyl)cyclohexanol] |  |  | 209 nM | 7.37 nM
Nc1c(Br)c(C2CCC(O)(CO)CC2)nc2c(-c3cnn(-c4ccccc4)c3)cnn12 (stereo not drawn) [Compound 135, 4-(7-amino-6-bromo-3-(1-phenyl-1H-pyrazol-4-yl)pyrazolo[1,5-a]pyrimidin-5-yl)-1-(hydroxymethyl)-cyclohexanol] | 100 to 1000 nM | 1 to 100 nM |  | 
Nc1c(Br)c([C@H]2CC[C@](O)(CCO)CC2)nc2c(-c3ccc(-c4ccccc4)nc3)cnn12 [Compound 137, (1S,4S)-4-(7-amino-6-bromo-3-(6-phenylpyridin-3-yl)pyrazolo[1,5-a]pyrimidin-5-yl)-1-(2-hydroxyethyl)cyclohexanol] | 100 to 1000 nM | 1 to 100 nM |  | 
CC(=O)c1c(C2CCC(O)(CO)CC2)nc2c(-c3ccc(-c4ccccc4)nc3)cnn2c1N (stereo not drawn) [Compound 138, 1-(7-amino-5-(4-hydroxy-4-(hydroxymethyl)cyclohexyl)-3-(6-phenylpyridin-3-yl)pyrazolo[1,5-a]pyrimidin-6-yl)ethanone] | 100 to 1000 nM | 1 to 100 nM |  | 
CC(=O)c1c(C2CCC(O)(CO)CC2)nc2c(-c3cnc4ccc(F)cc4c3)cnn2c1N (stereo not drawn) [Compound 142, 1-(7-amino-3-(6-fluoroquinolin-3-yl)-5-(4-hydroxy-4-(hydroxymethyl)-cyclohexyl)-pyrazolo-[1,5-a]pyrimidin-6-yl)ethanone] | 1 to 100 nM | 1 to 100 nM |  | 
CC(=O)c1c(C2CCC(O)(CO)CC2)nc2c(-c3ccc(-c4cccnc4)nc3)cnn2c1N (stereo not drawn) [Compound 143, 1-(3-(2,3′-bipyridin-5-yl)-7-amino-5-(4-hydroxy-4-(hydroxymethyl)-cyclohexyl)-pyrazolo-[1,5-a]pyrimidin-6-yl)ethanone] | 1000 to 2000 nM | 1 to 100 nM |  | 
CC(=O)c1c(C2CCC(O)(CO)CC2)nc2c(-c3ccc(-c4cnn(C)c4)nc3)cnn2c1N (stereo not drawn) [Compound 145, 1-(7-amino-5-(4-hydroxy-4-(hydroxymethyl)-cyclohexyl)-3-(6-(1-methyl-1H-pyrazol-4-yl)pyridin-3-yl)pyrazolo[1,5-a]pyrimidin-6-yl)ethanone] | 1000 to 2000 nM | 1 to 100 nM |  | 
CC(=O)c1c(N)n2ncc(-c3cnn(-c4cnn(C)c4)c3)c2nc1[C@H]1CC[C@@](O)(CO)CC1 [Compound 148, 1-(7-amino-5-((1R,4R)-4-hydroxy-4-(hydroxymethyl)cyclohexyl)-3-(1′-methyl-1′H-1,4′-bipyrazol-4-yl)pyrazolo[1,5-a]pyrimidin-6-yl)ethanone] | 2000 to 5000 nM | 1 to 100 nM |  | 
COC(=O)c1cc(-c2ccc(-c3cnn4c(N)c(C(C)=O)c([C@H]5CC[C@@](O)(CO)CC5)nc34)cn2)ccc1OC [Compound 153, methyl 5-(5-(6-acetyl-7-amino-5-((1R,4R)-4-hydroxy-4-(hydroxymethyl)-cyclohexyl)-pyrazolo-[1,5-a]pyrimidin-3-yl)pyridin-2-yl)-2-methoxybenzoate] | 5000 to 15000 nM | 1 to 100 nM |  | 
COc1ccc(-c2ccc(-c3cnn4c(N)c(C(C)=O)c(C5CCC(O)(CO)CC5)nc34)cn2)cc1C(=O)O (stereo not drawn) [Compound 155, 5-(5-(6-acetyl-7-amino-5-(4-hydroxy-4-(hydroxymethyl)-cyclohexyl)-pyrazolo-[1,5-a]pyrimidin-3-yl)pyridin-2-yl)-2-methoxybenzoic acid] | 5000 to 15000 nM | 1 to 100 nM |  | 
COCCOC[C@]1(CO)CC[C@H](c2nc3c(-c4ccc(-c5ccccc5)nc4)cnn3c(N)c2Br)CC1 [Compound 168, ((1S,4S)-4-(7-amino-6-bromo-3-(6-phenylpyridin-3-yl)pyrazolo[1,5-a]pyrimidin-5-yl)-1-((2-methoxyethoxy)-methyl)cyclohexyl)-methanol] | 1000 to 2000 nM | 1 to 100 nM |  | 
COCC1(CO)CCC(c2nc3c(-c4ccc(-c5ccccc5)nc4)cnn3c(N)c2C(C)=O)CC1 (stereo not drawn) [Compound 170, 1-(7-amino-5-(4-(hydroxymethyl)-4-(methoxymethyl)-cyclohexyl)-3-(6-phenylpyridin-3-yl)pyrazolo[1,5-a]pyrimidin-6-yl)ethanone] | 1000 to 2000 nM | 1 to 100 nM |  | 

Other lines, results leading:

IC50 ([1]; rated class) | IC50 ([2]; rated class) | IC50 ([1]; numeric value) | IC50 ([2]; numeric value) | Compound
100 to 1000 nM | 1 to 100 nM |  |  | COCCO[C@]1(C(=O)NN)CC[C@@H](c2nc3c(-c4cnn(-c5ccccc5)c4)cnn3c(N)c2S(C)(=O)=O)CC1 [Compound 107, (1R,4R)-4-(7-amino-6-(methylsulfonyl)-3-(1-phenyl-1H-pyrazol-4-yl)pyrazolo[1,5-a]pyrimidin-5-yl)-1-(2-methoxyethoxy)-cyclohexane-carbohydrazide]
100 to 1000 nM | 1 to 100 nM |  |  | Nc1c(Br)c(C2CCC(O)(CO)CC2)nc2c(-c3cnc4ccc(F)cc4c3)cnn12 (stereo not drawn) [Compound 136, 4-(7-amino-6-bromo-3-(6-fluoroquinolin-3-yl)pyrazolo[1,5-a]pyrimidin-5-yl)-1-(hydroxymethyl)cyclohexanol]
1 to 100 nM | 1 to 100 nM |  |  | CC(=O)c1c(C2CCC(O)(CO)CC2)nc2c(-c3cnn(-c4ccccc4)c3)cnn2c1N (stereo not drawn) [Compound 141, 1-(7-amino-5-(4-hydroxy-4-(hydroxymethyl)cyclohexyl)-3-(1-phenyl-1H-pyrazol-4-yl)pyrazolo[1,5-a]pyrimidin-6-yl)ethanone]
2000 to 5000 nM | 1 to 100 nM |  |  | CC(=O)c1c(C2CCC(O)(CO)CC2)nc2c(-c3ccc(-c4cncs4)nc3)cnn2c1N (stereo not drawn) [Compound 157, 1-(7-amino-5-(4-hydroxy-4-(hydroxymethyl)-cyclohexyl)-3-(6-(thiazol-5-yl)pyridin-3-yl)pyrazolo[1,5-a]pyrimidin-6-yl)ethanone]
1 to 100 nM | 1 to 100 nM |  |  | CC(=O)c1c(N)n2ncc(-c3ccc(-c4ccccc4)nc3)c2nc1[C@H]1CC[C@](O)(CCO)CC1 [Compound 159, 1-(7-amino-5-((1S,4S)-4-hydroxy-4-(2-hydroxyethyl)-cyclohexyl)-3-(6-phenylpyridin-3-yl)pyrazolo[1,5-a]pyrimidin-6-yl)ethanone]
1000 to 2000 nM | 1 to 100 nM |  |  | COC[C@]1(O)CC[C@@H](c2nc3c(-c4ccc(-c5ccccc5)nc4)cnn3c(N)c2Br)CC1 [Compound 164, (1S,4S)-4-(7-amino-6-bromo-3-(6-phenylpyridin-3-yl)pyrazolo[1,5-a]pyrimidin-5-yl)-1-(methoxymethyl)cyclohexanol]
1000 to 2000 nM | 1 to 100 nM |  |  | COCC1(O)CCC(c2nc3c(-c4cnc5ccc(F)cc5c4)cnn3c(N)c2Br)CC1 (stereo not drawn) [Compound 165, 4-(7-amino-6-bromo-3-(6-fluoroquinolin-3-yl)pyrazolo[1,5-a]pyrimidin-5-yl)-1-(methoxymethyl)cyclohexanol]
2000 to 5000 nM | 1 to 100 nM |  |  | COCCOC[C@]1(CO)CC[C@@H](c2nc3c(-c4ccc(-c5ccccc5)nc4)cnn3c(N)c2Br)CC1 [Compound 169, ((1R,4R)-4-(7-amino-6-bromo-3-(6-phenylpyridin-3-yl)pyrazolo[1,5-a]pyrimidin-5-yl)-1-((2-methoxyethoxy)-methyl)cyclohexyl)-methanol]
